Measured values published in US20250313563A1, “GLYCOGEN SYNTHASE KINASE 3 INHIBITORS AND USES THEREOF” (The Broad Institute, Inc., priority 2022, published 2025).
Like-named read-outs stand apart in the source and are kept apart here.

Legend:
[1] = biological target: GSK3α (GST-full length GSK3α) (Homo sapiens (Human), UniProt P49840); test: GSK3α TR-FRET kinase assay; format: biochemical
Method in brief: (§1)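 IC50 came from the normalized 665/615 nm TR-FRET ratio plotted against log compound concentration. The Tb-labelled pSer641 antibody and streptavidin-d2 detected phosphorylation of biotinylated S645-primed glycogen synthase peptide (200 nM) by 1 nM full-length GST-kinase. ATP was 4 μM for α, 2 μM for β, or 1 mM.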

[2] = biological target: GSK3b (GST-full length GSK3b) (Homo sapiens (Human), UniProt P49841); test: GSK3b TR-FRET kinase assay; format: biochemical
Chain of GSK3b (GST-full length GSK3b) (P49841 whole entry): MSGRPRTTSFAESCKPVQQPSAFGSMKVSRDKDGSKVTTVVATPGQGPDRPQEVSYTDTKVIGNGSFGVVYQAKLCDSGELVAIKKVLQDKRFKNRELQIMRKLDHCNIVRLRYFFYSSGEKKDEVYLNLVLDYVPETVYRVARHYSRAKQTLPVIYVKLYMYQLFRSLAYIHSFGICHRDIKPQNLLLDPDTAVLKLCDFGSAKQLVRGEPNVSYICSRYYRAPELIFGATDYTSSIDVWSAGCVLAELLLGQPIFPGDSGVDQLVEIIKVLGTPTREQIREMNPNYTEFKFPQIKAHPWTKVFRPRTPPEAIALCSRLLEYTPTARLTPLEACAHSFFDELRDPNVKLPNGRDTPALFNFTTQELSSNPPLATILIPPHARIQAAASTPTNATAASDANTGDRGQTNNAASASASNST
Method in brief: as §1

[3] = 1 nM GSK3α, 4 μM ATP, 30 minute preincubation, Table 16, read-out: GSK3-A TR-FRET BIOCHEMICAL (TR-FRET)
[4] = GSK3-A (TR-FRET 1 mM ATP), GMean, IC50, 1 mM ATP, geometric mean
[5] = 1 nM GSK3b, 2 μM ATP, 30 minute preincubation, Table 16, read-out: GSK3-B TR-FRET BIOCHEMICAL (TR-FRET)
[6] = GSK3-B (TR-FRET 1 mM ATP), GMean, IC50, 1 mM ATP, geometric mean
[7] = 1 nM GSK3α, 4 μM ATP, 30 minute preincubation, Table 16, read-out: GSK3-A TR-FRET BIOCHEMICAL (TR-FRET), IC50
[8] = 1 nM GSK3b, 2 μM ATP, 30 minute preincubation, Table 16, read-out: GSK3-B TR-FRET BIOCHEMICAL (TR-FRET), IC50
[9] = 1 nM GSK3α, 4 μM ATP, 30 minute preincubation, geometric mean, read-out: GSK3-A TR-FRET BIOCHEMICAL (TR-FRET), GMean, IC50
[10] = 1 nM GSK3b, 2 μM ATP, 30 minute preincubation, geometric mean, read-out: GSK3-B TR-FRET BIOCHEMICAL (TR-FRET), GMean, IC50
[11] = 1 nM GSK3α, 4 μM ATP, 30 minute preincubation, read-out: GSK3-A TR-FRET BIOCHEMICAL (TR-FRET), IC50
[12] = 1 nM GSK3b, 2 μM ATP, 30 minute preincubation, read-out: GSK3-B TR-FRET BIOCHEMICAL (TR-FRET), IC50
[13] = read-out: GSK3-A (TR-FRET 1 mM ATP), GMean, IC50, 1 mM ATP, geometric mean
[14] = read-out: GSK3-B (TR-FRET 1 mM ATP), GMean, IC50, 1 mM ATP, geometric mean

Chain of GSK3α (GST-full length GSK3α) (P49840 whole entry): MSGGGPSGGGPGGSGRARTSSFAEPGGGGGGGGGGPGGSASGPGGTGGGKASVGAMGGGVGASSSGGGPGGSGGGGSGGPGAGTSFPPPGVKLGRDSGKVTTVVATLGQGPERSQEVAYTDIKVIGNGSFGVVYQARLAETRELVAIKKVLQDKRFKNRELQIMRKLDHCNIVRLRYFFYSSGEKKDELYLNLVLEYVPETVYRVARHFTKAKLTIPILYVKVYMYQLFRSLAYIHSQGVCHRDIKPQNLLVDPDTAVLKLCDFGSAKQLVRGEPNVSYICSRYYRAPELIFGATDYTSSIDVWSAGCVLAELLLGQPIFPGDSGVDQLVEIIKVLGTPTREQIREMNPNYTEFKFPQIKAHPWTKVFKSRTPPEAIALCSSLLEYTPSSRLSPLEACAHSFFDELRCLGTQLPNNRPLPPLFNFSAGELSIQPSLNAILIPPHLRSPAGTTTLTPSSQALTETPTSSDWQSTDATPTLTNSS

SMILES: COc1cc(S(=O)(=O)N2CCC3(CC2)C2=C(CC(C)(C)CC2=O)Nc2n[nH]cc23)ccc1F [Compound 947263]
- IC50 [1, 3]: ≤ 100 nM
- IC50 [1, 4]: 100 to 1000 nM
- IC50 [2, 5]: ≤ 100 nM
- IC50 [2, 6]: 1000 to 5000 nM

SMILES: CC1(C)CC(=O)C2=C(C1)Nc1n[nH]cc1[C@]21CCOC1 [Compound 877313]
- IC50 [1, 3]: 100 to 1000 nM
- IC50 [2, 5]: 100 to 1000 nM

SMILES: CC1(C)CC2=C(C(=O)[C@@H]1F)[C@]1(CC[C@H](C(F)(F)F)CC1)c1c[nH]nc1N2 [Compound 918283]
- IC50 [1, 3]: ≤ 100 nM
- IC50 [2, 5]: ≤ 100 nM

SMILES: COC(=O)C1CCC2(CC1)C1=C(CC(C)(C)CC1=O)Nc1n[nH]cc12 (stereo not shown) [Compound 918270]
- IC50 [1, 3]: 100 to 1000 nM
- IC50 [2, 5]: 100 to 1000 nM

SMILES: CC[C@]1(c2cccc(C(C)C)c2)C2=C(CC(C)(C)NC2=O)Nc2n[nH]cc21 [Compound 949752]
- IC50 [1, 7]: > 5000 nM
- IC50 [2, 8]: > 5000 nM

SMILES: CC1(C)CC(=O)C2=C(C1)Nc1n[nH]cc1C2(C)c1cccc(-c2ccccc2)c1 (stereo not shown) [Compound 789513]
- IC50 [1, 9]: 100 to 1000 nM
- IC50 [2, 10]: 100 to 1000 nM

SMILES: CC[C@]1(c2ccccc2)C2=C(C[C@@](C)(COC)CC2=O)Nc2n[nH]cc21 [Compound 816873]
- IC50 [1, 9]: 100 to 1000 nM
- IC50 [2, 10]: 1000 to 5000 nM

SMILES: CCC1(c2cccc(C(F)(F)F)c2)C2=C(Nc3n[nH]cc31)C(C)NC2=O (stereo not shown) [Compound 945378]
- IC50 [1, 11]: ≤ 100 nM
- IC50 [2, 12]: 100 to 1000 nM

SMILES: CC1(C)CC(=O)C2=C(C1)Nc1n[nH]cc1C21CCN(S(=O)(=O)c2ccc(Cl)cc2)CC1 [Compound 945661]
- IC50 [1, 3]: ≤ 100 nM
- IC50 [2, 5]: ≤ 100 nM

SMILES: CCC1(c2cccc(-c3ccnc(C(F)(F)F)c3)c2)C2=C(CC(C)(C)CC2=O)Nc2n[nH]c(C)c21 (stereo not shown) [Compound 883989]
- IC50 [1, 7]: ≤ 100 nM
- IC50 [2, 8]: 100 to 1000 nM

SMILES: C[C@H]1C[C@@H]2C[C@]3(C[C@@H]2C1)C1=C(CC(C)(C)CC1=O)Nc1n[nH]cc13 [Compound 943896]
- IC50 [1, 11]: ≤ 100 nM
- IC50 [2, 12]: ≤ 100 nM

SMILES: CCC1(c2cccc(-c3ccnc(C)c3)c2)C2=C(CC(C)(C)CC2=O)Nc2n[nH]c(C)c21 (stereo not shown) [Compound 883987]
- IC50 [1, 7]: ≤ 100 nM
- IC50 [2, 8]: 100 to 1000 nM

SMILES: CCC1(c2cccc(-c3cc(OC)ncc3F)c2)C2=C(CC(C)(C)CC2=O)Nc2n[nH]cc21 (stereo not shown) [Compound 932630]
- IC50 [1, 7]: ≤ 100 nM
- IC50 [2, 8]: ≤ 100 nM

SMILES: CC(=O)N1CCC2(CC1)C1=C(CC(C)(C)CC1=O)Nc1n[nH]cc12 [Compound 826649]
- IC50 [1, 3]: 100 to 1000 nM
- IC50 [2, 5]: 1000 to 5000 nM

SMILES: CCC1(c2cccc(-c3ccncc3C)c2)C2=C(CC(C)(C)CC2=O)Nc2n[nH]cc21 (stereo not shown) [Compound 943990]
- IC50 [1, 3]: ≤ 100 nM
- IC50 [1, 13]: ≤ 100 nM
- IC50 [2, 5]: ≤ 100 nM
- IC50 [2, 14]: 100 to 1000 nM

SMILES: CC1(C)CC(=O)C2=C(C1)Nc1n[nH]c(Br)c1[C@@]21CCc2c(F)cccc21 [Compound 806938]
- IC50 [1, 9]: 100 to 1000 nM
- IC50 [2, 10]: 1000 to 5000 nM

SMILES: CC1(C)CC(=O)C2=C(C1)Nc1n[nH]cc1[C@@]21COC2(CCC2)C1 [Compound 917129]
- IC50 [1, 11]: 100 to 1000 nM
- IC50 [2, 12]: 100 to 1000 nM

SMILES: CC1(C)CC(=O)C2=C(C1)Nc1n[nH]cc1C21COC2(CN(C(=O)OC(C)(C)C)C2)C1 (stereo not shown) [Compound 911083]
- IC50 [1, 11]: 100 to 1000 nM
- IC50 [2, 12]: 1000 to 5000 nM

SMILES: CCOc1cccc(S(=O)(=O)N2CCC3(CC2)C2=C(CC(C)(C)CC2=O)Nc2n[nH]cc23)c1 [Compound 947253]
- IC50 [1, 3]: ≤ 100 nM
- IC50 [1, 4]: 100 to 1000 nM
- IC50 [2, 5]: ≤ 100 nM
- IC50 [2, 6]: 1000 to 5000 nM

SMILES: CC1(C)CC(=O)C2=C(C1)Nc1n[nH]cc1C21CCN(S(=O)(=O)c2ccc3c(c2)OCCO3)CC1 [Compound 947900]
- IC50 [1, 3]: ≤ 100 nM
- IC50 [2, 5]: ≤ 100 nM

SMILES: CC1(C)CC(=O)C2=C(C1)Nc1n[nH]cc1[C@@]21CCN(S(=O)(=O)c2ccccc2)C1 [Compound 951788]
- IC50 [1, 3]: ≤ 100 nM
- IC50 [1, 4]: 100 to 1000 nM
- IC50 [2, 5]: ≤ 100 nM
- IC50 [2, 6]: 1000 to 5000 nM

SMILES: CCC1(c2cccc(S(=O)(=O)C3CC(F)(F)C3)c2)C2=C(CC(C)(C)CC2=O)Nc2n[nH]cc21 (stereo not shown) [Compound 944019]
- IC50 [1, 3]: ≤ 100 nM
- IC50 [2, 5]: ≤ 100 nM

SMILES: CC[C@]1(c2cccc(N3CCC[C@H]3C)c2)C2=C(CC(C)(C)CC2=O)Nc2n[nH]cc21 [Compound 918322]
- IC50 [1, 7]: > 5000 nM
- IC50 [2, 8]: > 5000 nM

SMILES: CCC1(c2cccc(-c3ccnc4c3CCC4)c2)C2=C(CC(C)(C)CC2=O)Nc2n[nH]cc21 (stereo not shown) [Compound 943534]
- IC50 [1, 3]: ≤ 100 nM
- IC50 [2, 5]: ≤ 100 nM

SMILES: CCC1(c2cccc(N(C)c3cc(C)ccn3)c2)C2=C(CC(C)(C)CC2=O)Nc2n[nH]cc21 (stereo not shown) [Compound 943537]
- IC50 [1, 3]: ≤ 100 nM
- IC50 [2, 5]: 100 to 1000 nM

SMILES: Cc1[nH]nc2c1C1(CCCCC1)C1=C(CC(C)(C)CC1=O)N2 [Compound 883865]
- IC50 [1, 3]: ≤ 100 nM
- IC50 [2, 5]: 100 to 1000 nM

SMILES: CCC1(c2cccc(-c3cnn(CC#N)c3)c2)C2=C(CC(C)(C)NC2=O)Nc2n[nH]cc21 (stereo not shown) [Compound 952210]
- IC50 [1, 7]: ≤ 100 nM
- IC50 [2, 8]: 100 to 1000 nM

SMILES: CCC1(c2cccc(C(F)F)c2)C2=C(CC(C)(C)NC2=O)Nc2n[nH]c(C(F)(F)F)c21 (stereo not shown) [Compound 948305]
- IC50 [1, 9]: ≤ 100 nM
- IC50 [2, 10]: ≤ 100 nM

SMILES: CCC1(c2cccc(-c3cnn4c3CCCC4)c2)C2=C(CC(C)(C)CC2=O)Nc2n[nH]c(C)c21 (stereo not shown) [Compound 913033]
- IC50 [1, 7]: 100 to 1000 nM
- IC50 [2, 8]: 1000 to 5000 nM

SMILES: CCC1(c2ccc(F)cc2)C2=C(CC(C)(C)CC2=O)Nc2n[nH]cc21 (stereo not shown) [Compound 772965]
- IC50 [1, 9]: 1000 to 5000 nM
- IC50 [2, 10]: > 5000 nM

SMILES: CCC1(c2cccc(-c3ccnc(C)c3)c2)C2=C(CC(C)(C)CC2=O)Nc2n[nH]c(C)c21 (stereo not shown) [Compound 913051]
- IC50 [1, 7]: 100 to 1000 nM
- IC50 [2, 8]: > 5000 nM

SMILES: Cc1ccccc1CC(=O)N1CC2(C1)CC1(CO2)C2=C(CC(C)(C)CC2=O)Nc2n[nH]cc21 (stereo not shown) [Compound 947295]
- IC50 [1, 11]: ≤ 100 nM
- IC50 [2, 12]: ≤ 100 nM

SMILES: CCC1(c2cccc(-c3ccncc3C)c2)C2=C(CC3(CCC3)NC2=O)Nc2n[nH]cc21 (stereo not shown) [Compound 948523]
- IC50 [1, 9]: ≤ 100 nM
- IC50 [2, 10]: 100 to 1000 nM

SMILES: C[C@H]1C[C@@]2(CCO1)C1=C(CC(C)(C)CC1=O)Nc1n[nH]cc12 [Compound 899560]
- IC50 [1, 3]: 100 to 1000 nM
- IC50 [2, 5]: 1000 to 5000 nM

SMILES: CCC1(c2cccc(Br)c2)C2=C(CC(C(F)(F)F)CC2=O)Nc2n[nH]cc21 (stereo not shown) [Compound 819565]
- IC50 [1, 9]: 100 to 1000 nM
- IC50 [2, 10]: 100 to 1000 nM

SMILES: CC[C@@]1(c2cccc(C(F)(F)F)c2)C2=C(CC(C)(C)NC2=O)Nc2n[nH]cc21 [Compound 913004]
- IC50 [1, 11]: > 5000 nM
- IC50 [2, 12]: > 5000 nM

SMILES: CCC1(c2cccc(-c3cnnn3C)c2)C2=C(CC(C)(C)CC2=O)Nc2n[nH]cc21 (stereo not shown) [Compound 947802]
- IC50 [1, 3]: ≤ 100 nM
- IC50 [2, 5]: ≤ 100 nM

SMILES: CC1(C)CC(=O)C2=C(C1)Nc1n[nH]cc1C21CCC(F)(F)CC1 [Compound 883972]
- IC50 [1, 3]: ≤ 100 nM
- IC50 [2, 5]: 100 to 1000 nM

SMILES: C[C@@H]1CCC[C@@]2(C1)C1=C(CC(C)(C)CC1=O)Nc1n[nH]cc12 [Compound 893320]
- IC50 [1, 3]: ≤ 100 nM
- IC50 [2, 5]: ≤ 100 nM

SMILES: CC[C@]1(c2ccccc2)C2=C(C[C@]3(CCOC3)CC2=O)Nc2n[nH]cc21 [Compound 816880]
- IC50 [1, 9]: > 5000 nM
- IC50 [2, 10]: > 5000 nM

SMILES: CC[C@]1(c2cccc(-c3cnn(-c4cccnc4)c3)c2)C2=C(CC(C)(C)NC2=O)Nc2n[nH]cc21 [Compound 952024]
- IC50 [1, 7]: 100 to 1000 nM
- IC50 [2, 8]: > 5000 nM

SMILES: CCC1(c2cccc(-c3cnn(C)c3)c2)C2=C(CC(C)(C)NC2=O)Nc2n[nH]c(C(F)F)c21 (stereo not shown) [Compound 949171]
- IC50 [1, 9]: ≤ 100 nM
- IC50 [1, 13]: ≤ 100 nM
- IC50 [2, 10]: ≤ 100 nM
- IC50 [2, 14]: 1000 to 5000 nM
